Like-named read-outs stand apart in the source and are kept apart here.
Legend:
APOL1 G1 = target: T1, APOL1 G1 (Homo sapiens, UniProt O14791, I384M/S342G); assay: Trypanosoma brucei brucei Lysis Assay Using APOL1 Recombinant Protein (AlamarBlue viability readout); assay type: cell-based; conditions: for Emax: read-out: Trypanosome Assay Max Activity (%)
T1 sequence (O14791 28-398 S342G/I384M): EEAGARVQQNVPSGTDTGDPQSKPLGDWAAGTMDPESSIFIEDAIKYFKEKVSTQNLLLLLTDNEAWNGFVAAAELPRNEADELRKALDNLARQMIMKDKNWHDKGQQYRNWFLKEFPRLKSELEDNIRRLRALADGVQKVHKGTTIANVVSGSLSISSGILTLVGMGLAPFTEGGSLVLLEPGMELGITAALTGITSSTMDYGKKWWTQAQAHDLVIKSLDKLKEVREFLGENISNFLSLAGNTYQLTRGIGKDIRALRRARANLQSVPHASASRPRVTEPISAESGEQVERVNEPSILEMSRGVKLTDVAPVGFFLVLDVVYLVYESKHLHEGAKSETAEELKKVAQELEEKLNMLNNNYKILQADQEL
How it was run: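 Percent viability comes from AlamarBlue (resazurin→resorufin) fluorescence interpolated on a standard curve of known parasite numbers, with no-APOL1 wells as 100%. Parasites (Lister 427 bloodstream form, 120,000/well, serum-free assay medium) meet 0.05 μg/mL APOL1 (~EC90). Compounds span a 10-point series, 0.1% DMSO final.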

APOL1 = target: T2, APOL1 (Homo sapiens, UniProt O14791); assay: Multi-Tox Assay (MultiTox-Fluor Multiplex Cytotoxicity Assay in tet-inducible APOL1 T-REx-HEK293 cells; Table 46 does not say which APOL1 variant G0/G1/G2); assay type: cell-based; conditions: APOL1 variant not given; for IC50: IP50 = IC50 for cell proliferation
T2 sequence (O14791 1-398 S342G/I384M): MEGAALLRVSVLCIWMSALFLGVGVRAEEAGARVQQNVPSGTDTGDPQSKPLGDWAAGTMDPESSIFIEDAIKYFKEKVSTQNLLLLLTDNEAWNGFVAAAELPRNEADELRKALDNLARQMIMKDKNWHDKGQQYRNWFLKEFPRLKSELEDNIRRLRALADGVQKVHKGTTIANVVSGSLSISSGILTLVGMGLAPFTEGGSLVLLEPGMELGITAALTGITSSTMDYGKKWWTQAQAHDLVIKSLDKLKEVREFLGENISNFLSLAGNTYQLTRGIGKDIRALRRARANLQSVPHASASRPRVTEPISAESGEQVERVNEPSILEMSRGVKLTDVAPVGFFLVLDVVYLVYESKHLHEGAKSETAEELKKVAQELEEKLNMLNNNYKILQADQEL

[1] = Trypanosome Assay, IP50 = IC50 for cell proliferation, read-out: Trypanosome Assay IP50

SMILES | Trypanosome Assay Max Activity (%) (APOL1 G1; Trypanosome Assay) | IC50 (APOL1 G1; [1]) [µM] | IC90 (APOL1) [µM] | Multi-Tox Assay Max Activity (%) (APOL1) | IC50 (APOL1) [µM] | Emax (APOL1 G1; Trypanosome Assay) [%] | IC50 (APOL1 G1) [µM] | Emax (APOL1 G1) [%]
CC1CC2(CC(C3CC3(F)F)N1)OCCc1cc(Cl)sc12 (single isomer, unassigned) [Compound 213] | 98.7 | 0.05 to 0.5 | 0.05 to 0.5 | 99.5 | 0.05 to 0.5 |  |  | 
Cc1cc2c(s1)C1(C[C@@H](c3cn(C)nn3)N[C@@H](C)C1)OCC2 (stereo in doubt) [Compound 3] |  | < 0.05 |  |  | < 0.05 | 107 |  | 
CCc1cc2c(s1)CCOC21C[C@@H](c2cn(C)nn2)N[C@@H](C)C1 (stereo in doubt) [Compound 4] |  | < 0.05 |  |  | < 0.05 | 118 |  | 
CCc1cc2c(s1)CCO[C@@]21C[C@@H](c2cnn(CCS(C)(=O)=O)c2)N[C@@H](C)C1 (stereo in doubt) [Compound 5] |  | 0.05 to 0.5 |  | 100.0 | 0.05 to 0.5 | 111 |  | 
CCc1cc2c(s1)C1(C[C@@H](c3cn(C)nn3)N[C@@H](C)C1)OCC2 (stereo in doubt) [Compound 6] |  | < 0.05 |  |  | < 0.05 | 102 |  | 
CCc1cc2c(s1)C(C)COC21C[C@@H](c2cn(C)nn2)N[C@@H](C)C1 (stereo in doubt) [Compound 10] |  | 0.05 to 0.5 |  | 99.7 | < 0.05 | 101 |  | 
CCc1cc2c(s1)C(C)COC21C[C@@H](c2cn(C)nn2)N[C@@H](C)C1 (stereo in doubt) [Compound 11] | 101.5 | < 0.05 | < 0.05 | 99.3 | < 0.05 |  |  | 
CC1COC2(C[C@@H](c3cn(C)nn3)N[C@@H](C)C2)c2cc(Cl)sc21 (stereo in doubt) [Compound 12] |  | < 0.05 |  | 99.3 | < 0.05 | 102 |  | 
CC1COC2(C[C@@H](c3cn(C)nn3)N[C@@H](C)C2)c2cc(Cl)sc21 (stereo in doubt) [Compound 13] | 100.0 | < 0.05 | < 0.05 | 99.0 | < 0.05 |  |  | 
CC1COC2(C[C@@H](c3cn(C)nn3)N[C@@H](C)C2)c2cc(C(F)(F)F)sc21 (stereo in doubt) [Compound 14] |  | < 0.05 |  |  | < 0.05 | 102 |  | 
C[C@H]1CC2(C[C@@H](c3cn(C)nn3)N1)OCC(C)(C)c1sc(Cl)cc12 (stereo in doubt) [Compound 15] |  | < 0.05 |  | 99.0 | < 0.05 | 101 |  | 
C[C@H]1CC2(C[C@@H](c3cn(C)nn3)N1)OCC(C)(C)c1sc(C(F)(F)F)cc12 (stereo in doubt) [Compound 16] |  | 0.05 to 0.5 |  | 100.0 | < 0.05 | 99.5 |  | 
C[C@H]1C[C@@]2(C[C@@H](c3ccc(O)c(F)c3)N1)OCCc1cc(Cl)sc12 (stereo in doubt) [Compound 51] |  | < 0.05 |  | 99.7 | < 0.05 | 102 |  | 
C[C@H]1C[C@@]2(C[C@@H](c3cnc(-c4cnn(C)c4)nc3)N1)OCCc1cc(Cl)sc12 (stereo in doubt) [Compound 61] |  | < 0.05 |  |  | < 0.05 | 105 |  | 
C[C@H]1C[C@@]2(C[C@@H](c3ccc(O)nn3)N1)OCCc1cc(Cl)sc12 (stereo in doubt) [Compound 86] |  | < 0.05 |  |  | < 0.05 | 112 |  | 
CCc1cc([C@@H]2C[C@]3(C[C@H](C)N2)OCCc2cc(Cl)sc23)on1 (stereo in doubt) [Compound 91] |  | < 0.05 |  |  | < 0.05 | 110 |  | 
C[C@H]1C[C@@]2(C[C@@H](c3cnn(C4CCS(=O)(=O)C4)c3)N1)OCCc1cc(Cl)sc12 (stereo in doubt) [Compound 97] |  | < 0.05 |  |  | < 0.05 | 104 |  | 

SMILES | Trypanosome Assay Max Activity (%) (APOL1 G1; Trypanosome Assay) | IC50 (APOL1 G1; [1]) [µM] | IC90 (APOL1) [µM] | Multi-Tox Assay Max Activity (%) (APOL1) | IC50 (APOL1) [µM] | Emax (APOL1 G1; Trypanosome Assay) [%] | IC50 (APOL1 G1) [µM] | Emax (APOL1 G1) [%]
C[C@H]1C[C@@]2(C[C@@H](c3cc(C4CCOCC4)[nH]n3)N1)OCCc1cc(Cl)sc12 (stereo in doubt) [Compound 114] |  | 0.05 to 0.5 |  | 99.7 | < 0.05 | 95 |  | 
C[C@H]1C[C@@]2(C[C@@H](c3cc(C(F)(F)F)[nH]n3)N1)OCCc1cc(Cl)sc12 (stereo in doubt) [Compound 119] |  | 0.05 to 0.5 |  | 99.7 | < 0.05 | 97.5 |  | 
C[C@H]1C[C@@]2(C[C@@H](c3cccn4ccnc34)N1)OCCc1cc(Cl)sc12 (stereo in doubt) [Compound 143] |  | 0.05 to 0.5 |  | 98.0 | 0.05 to 0.5 | 101 |  | 
C[C@H]1CC2(CC(c3cn(C)cn3)N1)OCC(O)c1cc(Cl)sc12 (stereo in doubt) [Compound 178] |  | < 0.05 |  |  | < 0.05 | 101 |  | 
C[C@H]1CC2(CC(c3cn(C)cn3)N1)OCC(O)c1cc(Cl)sc12 (stereo in doubt) [Compound 179] | 119.5 | < 0.05 | < 0.05 | 99.0 | < 0.05 |  |  | 
C[C@H]1C[C@@]2(C[C@@H](c3cn(C)nn3)N1)OCCc1cc(Cl)sc12 [Compound 1, (2′S,6′S,7S)-2-chloro-2′-methyl-6′-(1-methyltriazol-4-yl)spiro[4,5-dihydrothieno[2,3-c]pyran-7,4′-piperidine]] |  | < 0.05 |  |  | < 0.05 | 124 |  | 
C[C@H]1C[C@@]2(C[C@@H](c3cn(C)nn3)N1)OCCc1cc(C(F)(F)F)sc12 [Compound 2, (2′S,6′S,7S)-2′-methyl-6′-(1-methyltriazol-4-yl)-2-(trifluoromethyl)spiro[4,5-dihydrothieno[2,3-c]pyran-7,4′-piperidine]] |  | < 0.05 |  |  | < 0.05 | 117 |  | 
C[C@H]1C[C@@]2(C[C@@H](c3cn(C)nn3)N1)OCCc1sc(C(F)(F)F)cc12 [Compound 8, (2′S,4S,6′S)-2′-methyl-6′-(1-methyltriazol-4-yl)-2-(trifluoromethyl)spiro[6,7-dihydrothieno[3,2-c]pyran-4,4′-piperidine]] |  | 0.05 to 0.5 |  | 100.0 | < 0.05 | 106 |  | 
CC1CC2(CC(c3cnn(CCS(C)(=O)=O)c3)N1)OCCc1sc(C(F)(F)F)cc12 (centres unmarked) [Compound 9] |  | 0.05 to 0.5 |  | 100.0 | < 0.05 | 108 |  | 
C[C@H]1C[C@@]2(C[C@@H](c3cn(C)nn3)N1)OCCc1c2sc(C(F)(F)F)c1CO [Compound 17, [(2′S,6′S, 7S)-2′-methyl-6′-(1-methyltriazol-4-yl)-2-(trifluoromethyl)spiro[4,5-dihydrothieno[2,3-c]pyran-7,4′-piperidine]-3-yl]methanol] |  | 0.05 to 0.5 |  |  | < 0.05 | 102 |  | 
C[C@H]1C[C@@]2(C[C@@H](c3cnn(CC(=O)N(C)C)c3)N1)OCCc1cc(Cl)sc12 [Compound 18, 2-[4-[(2S,6S)-2-chloro-6′-methyl-spiro[4,5-dihydrothieno[2,3-c]pyran-7,4′-piperidine]-2′-yl]pyrazol-1-yl]-N,N-dimethyl-acetamide] |  | 0.05 to 0.5 |  |  | < 0.05 | 103 |  | 
C[C@H]1C[C@@]2(C[C@@H](c3cnn(C)c3)N1)OCCc1cc(Cl)sc12 [Compound 19, (2S)-2-chloro-2′-methyl-6′-(1-methylpyrazol-4-yl)spiro[4,5-dihydrothieno[2,3-c]pyran-7,4′-piperidine]] |  | < 0.05 |  |  | < 0.05 | 107 |  | 
CC1CC2(CC(c3ccc4c(c3)oc(=O)n4C)N1)OCCc1cc(Cl)sc12 (centres unmarked) [Compound 23] |  | < 0.05 | < 0.05 | 99.7 | < 0.05 | 116 |  | 
CC1CC2(CC(c3cccc(C#N)c3)N1)OCCc1cc(Cl)sc12 (centres unmarked) [Compound 24] |  | < 0.05 |  | 100.0 | < 0.05 | 107 |  | 
CNC(=O)c1cccc(C2CC3(CC(C)N2)OCCc2cc(Cl)sc23)c1 (centres unmarked) [Compound 27] |  | < 0.05 |  |  | < 0.05 | 112 |  | 
CC1CC2(CC(c3ccncc3)N1)OCCc1cc(Cl)sc12 (centres unmarked) [Compound 30] |  |  |  | 99.0 | < 0.05 |  | < 0.05 | 124
